Assay results as given in PMC11666850, “Development and evaluation of deuterated [^18F]JHU94620 isotopologues for the non-invasive assessment of the cannabinoid type 2 receptor in brain” (EJNMMI Radiopharmacy and Chemistry, 2024).

Columns and labels:
[1] = target: hCB2R(D80N) (Homo sapiens, UniProt P34972, D80N); test: Homologous displacement autoradiography, brain cryosections of rats with hCB2R(D80N) overexpression; format: binding
[2] = in vitro; format: in vitro ADME; settings: microsomes, pH 7.4
Protocol: For microsomal incubations liver microsomes from human (HLM, 50 donors, 20 mg/mL) and rat (RLM, Sprague Dawley, 20 mg/mL) were purchased from Thermo Fisher Scientific GmbH (Dreieich, Germany). Testosterone and β-nicotinamide adenine dinucleotide 2′-phosphate reduced tetrasodium salt (NADPH) were purchased from Sigma-Aldrich (Merck KGaA, Darmstadt, Germany) and Dulbecco’s PBS (DPBS) (without Ca^2+ and Mg^2+) was purchased from Biochrom GmbH (Berlin, Germany). Analyses of samples for comparison of radiometabolite patterns were performed by radio-HPLC using method B, for determination of time dependency of the metabolic depletion using method C.
The final concentrations are given in brackets. […] The mixtures were vortexed and shaken gently at 37 °C using the BioShake iQ (QUANTIFOIL Instruments, Jena, Germany) for 5, 10, 15, 30, 45, and 60 min (for HLM) or 15, 30, 45, and 60 min (for RLM). […] The supernatants were separated and analyzed by radio-HPLC to determine the fractions of unchanged [^18F]JHU94620-d8. Efficiencies of extracted activity were determined as described in “Quantification of radiometabolites”. […]
To determine the metabolic stability in HLM and RLM, both the natural logarithm of the determined unchanged percentage of [^18F]JHU94620-d8 was plotted versus incubation time, which allowed the calculation of the in vitro half-lives as described previously (Chai et al. [2022]).

hCB2R(D80N), sequence (P34972 whole entry D80N): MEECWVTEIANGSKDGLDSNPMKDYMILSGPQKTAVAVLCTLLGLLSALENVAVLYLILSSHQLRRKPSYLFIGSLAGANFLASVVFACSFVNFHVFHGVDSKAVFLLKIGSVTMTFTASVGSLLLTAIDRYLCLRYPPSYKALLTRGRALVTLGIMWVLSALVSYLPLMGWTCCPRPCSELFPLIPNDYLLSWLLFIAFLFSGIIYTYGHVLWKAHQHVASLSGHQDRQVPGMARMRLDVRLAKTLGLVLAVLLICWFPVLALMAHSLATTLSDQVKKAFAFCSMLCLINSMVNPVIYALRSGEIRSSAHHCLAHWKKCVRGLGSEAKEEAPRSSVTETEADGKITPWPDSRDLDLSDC

`[2H]C([2H])([18F])C([2H])([2H])C([2H])([2H])C([2H])([2H])n1c(C)c(C)s/c1=N\C(=O)C1C(C)(C)C1(C)C` [[^18F]JHU94620-d8] gave a Kd [1] of 41 nM, a half-life ([2]; Sprague Dawley, rat) of 10.8 ± 2.4 min and a half-life ([2]; human) of 2.1 ± 0.7 min.
